According to US7754919B2, “Non-nucleoside reverse transcriptase inhibitors” (Roche Palo Alto LLC, priority 2005, dated 2010):

Tested on: not given
Assay: not given
Conditions: not given

| SMILES | melting point [°C] |
| --- | --- |
| Cc1cc(C(=O)O)ccc1NC(=O)Cc1ccc(Br)c(Oc2cc(C#N)cc(C(F)F)c2)c1F | 267.9 to 268.1 |
| Cc1cc(C(=O)NCCN(C)C)ccc1NC(=O)Cc1ccc(Br)c(Oc2cc(C#N)cc(C(F)F)c2)c1F | 205.6 to 206.6 |
| N#Cc1cc(Cl)cc(Oc2c(Cl)ccc(CC(=O)Nc3ccc(C(=O)O)cc3Cl)c2F)c1 | 242 to 243 |
| Cc1cc(C(N)=O)ccc1NC(=O)Cc1ccc(Cl)c(Oc2cc(Cl)cc(C#N)c2)c1F | 255.9 to 257.1 |
| CN(C)CCNC(=O)c1ccc(NC(=O)Cc2ccc(Cl)c(Oc3cc(Cl)cc(C#N)c3)c2F)c(Cl)c1 | 202.8 to 203.6 |
| Cc1cc(C(=O)O)ccc1NC(=O)Cc1ccc(Br)c(Oc2cc(Cl)cc(C#N)c2)c1F | 270 to 270.8 |
| Cc1cc(C(=O)NCCN2CCS(=O)(=O)CC2)ccc1NC(=O)Cc1ccc(Br)c(Oc2cc(Cl)cc(C#N)c2)c1F | 168.1 to 170.1 |
| Cc1cc(C(=O)NC(C)CN(C)C)ccc1NC(=O)Cc1ccc(Br)c(Oc2cc(Cl)cc(C#N)c2)c1F (stereo not drawn) | 222 to 223.2 |
| Cc1cc(C(=O)NCCN2CCOCC2)ccc1NC(=O)Cc1ccc(Br)c(Oc2cc(Cl)cc(C#N)c2)c1F | 219.8 to 222 |
| Cc1cc(C(=O)NCCN)ccc1NC(=O)Cc1ccc(Cl)c(Oc2cc(Cl)cc(C#N)c2)c1F | 207.6 to 208.6 |
| Cc1cc(C(=O)O)ccc1NC(=O)Cc1ccc(Cl)c(Oc2cc(Cl)cc(C#N)c2)c1F | 287.1 to 289.1 |
| Cc1cc(C(=O)NC2CCNC2)ccc1NC(=O)Cc1ccc(Br)c(Oc2cc(Cl)cc(C#N)c2)c1F (stereo not drawn) | 117.8 to 120 |
| N#Cc1cc(Oc2c(Br)ccc(CC(=O)Nc3ccc(C(=O)NCCN4CCCC4)cc3Cl)c2F)cc(C(F)F)c1 | 160 to 165.7 |
| Cc1cc(C(=O)NCCN2CCCC2)ccc1NC(=O)Cc1ccc(Br)c(Oc2cc(C#N)cc(C(F)F)c2)c1F | 202.4 to 203.7 |
| Cc1cc(C(=O)NC[C@@H](C)O)ccc1NC(=O)Cc1ccc(Br)c(Oc2cc(C#N)cc(C(F)F)c2)c1F | 225.5 to 228.8 |
| Cc1cc(C(=O)NCCN(C)C)ccc1NC(=O)Cc1ccc(Cl)c(Oc2cc(Cl)cc(C#N)c2)c1F | 213.3 to 216 |
| N#Cc1cc(Cl)cc(Oc2c(Br)ccc(CC(=O)Nc3ccc(C(=O)NCCN(CCO)CCO)cc3Cl)c2F)c1 | 100.1 |
| Cc1cc(C(=O)NC[C@@H](C)O)ccc1NC(=O)Cc1ccc(Cl)c(Oc2cc(Cl)cc(C#N)c2)c1F [Compound I-10, 4-{2-[4-Chloro-3-(3-chloro-5-cyano-phenoxy)-2-fluoro-phenyl]-acetylamino}-N-((R)-2-hydroxy-propyl)-3-methyl-benzamide] | 249 to 249.4 |
| Cc1cc(C(=O)NCCN2CCC(O)CC2)ccc1NC(=O)Cc1ccc(Br)c(Oc2cc(Cl)cc(C#N)c2)c1F [Compound I-25, 4-{2-[4-Bromo-3-(3-chloro-5-cyano-phenoxy)-2-fluoro-phenyl]-acetylamino}-N-[2-(4-hydroxy-piperidin-1-yl)-ethyl]-3-methyl-benzamide] | 219.6 to 221.6 |
| Cc1cc(C(=O)NCCN2CCNCC2)ccc1NC(=O)Cc1ccc(Br)c(Oc2cc(Cl)cc(C#N)c2)c1F [Compound I-30, 4-{2-[4-Bromo-3-(3-chloro-5-cyano-phenoxy)-2-fluoro-phenyl]-acetylamino}-3-methyl-N-(2-piperazin-1-yl-ethyl)-benzamide] | 126.5 to 127 |
| Cc1cc(C(=O)NS(C)(=O)=O)ccc1NC(=O)Cc1ccc(Br)c(Oc2cc(Cl)cc(C#N)c2)c1F [Compound I-36, 2-[4-Bromo-3-(3-chloro-5-cyano-phenoxy)-2-fluoro-phenyl]-N-(4-methanesulfonylaminocarbonyl-2-methyl-phenyl)-acetamide] | 244.9 to 246.7 |
| Cl.N#Cc1cc(Cl)cc(Oc2c(Br)ccc(CC(=O)Nc3ccc(C(=O)NCCN4CCC(F)(F)CC4)cc3Cl)c2F)c1 [Compound I-40, 4-{2-[4-Bromo-3-(3-chloro-5-cyano-phenoxy)-2-fluoro-phenyl]-acetylamino}-3-chloro-N-[2-(4,4-difluoro-piperidin-1-yl)-ethyl]-benzamide; hydrochloride salt] | 140.2 to 143.3 |

Now from value to molecule:

| melting point [°C] | SMILES |
| --- | --- |
| 214.7 to 216.9 | Cc1cc(C(=O)NCCN2CCCC2)ccc1NC(=O)Cc1ccc(Br)c(Oc2cc(Cl)cc(C#N)c2)c1F |
| 197.7 to 198.3 | N#Cc1cc(Cl)cc(Oc2c(Br)ccc(CC(=O)Nc3ccc(C(=O)NCCN4CCCC4)cc3Cl)c2F)c1 |
| 207 to 209 | N#Cc1cc(Cl)cc(Oc2c(Br)ccc(CC(=O)Nc3ccc(C(=O)NC(=N)N)cc3Cl)c2F)c1 |
| 190.1 | CC(CN(C)C)NC(=O)c1ccc(NC(=O)Cc2ccc(Br)c(Oc3cc(Cl)cc(C#N)c3)c2F)c(Cl)c1 (stereo not drawn) |
| 212 | CCN1CCCC1CNC(=O)c1ccc(NC(=O)Cc2ccc(Br)c(Oc3cc(Cl)cc(C#N)c3)c2F)c(Cl)c1 (stereo not drawn) |
| 179 to 181 | CC1CC[C@@H](C)N1CCNC(=O)c1ccc(NC(=O)Cc2ccc(Br)c(Oc3cc(Cl)cc(C#N)c3)c2F)c(Cl)c1 (stereo partly drawn) |
| 130.5 | CC1(NC(=O)c2ccc(NC(=O)Cc3ccc(Br)c(Oc4cc(Cl)cc(C#N)c4)c3F)c(Cl)c2)CCNCC1.O=C(O)C(F)(F)F |
| 158 to 160.8 | CC(C)(CN)NC(=O)c1ccc(NC(=O)Cc2ccc(Br)c(Oc3cc(Cl)cc(C#N)c3)c2F)c(Cl)c1.Cl |
| 247.7 to 250.1 | N#Cc1cc(Cl)cc(Oc2c(Br)ccc(CC(=O)Nc3ccc(C(=O)NC4(CO)CC4)cc3Cl)c2F)c1 |
| 95 to 105 | CC1(NC(=O)c2ccc(NC(=O)Cc3ccc(Br)c(Oc4cc(Cl)cc(C#N)c4)c3F)c(Cl)c2)CCS(=O)(=O)C1 (stereo not drawn) |
| 235.5 | CS(=O)(=O)CCNC(=O)c1ccc(NC(=O)Cc2ccc(Br)c(Oc3cc(Cl)cc(C#N)c3)c2F)c(Cl)c1 |
| 245 | N#Cc1cc(Cl)cc(Oc2c(Br)ccc(CC(=O)Nc3ccc(C(=O)N[C@@H]4CS(=O)(=O)C[C@H]4O)cc3Cl)c2F)c1 |
| 96 | CN1CCC(C)(NC(=O)c2ccc(NC(=O)Cc3ccc(Br)c(Oc4cc(Cl)cc(C#N)c4)c3F)c(Cl)c2)CC1 |
| 148 to 152.4 | N#Cc1cc(Cl)cc(Oc2c(Br)ccc(CC(=O)Nc3ccc(C(=O)NC4(CN)CC4)cc3Cl)c2F)c1.O=C(O)C(F)(F)F |
| 69.1 | CC(CO)(CO)NC(=O)c1ccc(NC(=O)Cc2ccc(Br)c(Oc3cc(Cl)cc(C#N)c3)c2F)c(Cl)c1 |

Target: T1, HIV-1 RT (Human immunodeficiency virus type 1 group M subtype B, UniProt P03366)
Assay: Heteropolymer HIV reverse Transcriptase Assay: Inhibitor IC50 Determination
Type: biochemical
Conditions: RNA-dependent DNA polymerase activity, biotinylated DNA primer/RNA template, SPA beads, 30°C 30 min
Method: Heteropolymer HIV reverse Transcriptase Assay: Inhibitor IC50 Determination
RNA-dependent DNA polymerase activity was measured using a biotinylated primer oligonucleotide and tritiated dNTP substrate. Newly synthesized DNA was quantified by capturing the biotinylated primer molecules on streptavidin coated Scintillation Proximity Assay (SPA) beads (Amersham). The sequences of the polymerase assay substrate were: 18nt DNA primer, 5′-Biotin/GTC CCT GTT CGG GCG CCA-3′ (SEQ. ID NO. 2); 47nt RNA template, 5′-GGGUCUCUCUGGUUAGACCACUCUAGCAGUGGCGCCCGAACAGGGAC-3′ (SEQ ID NO. 1). The biotinylated DNA primer was obtained from the Integrated DNA Technologies Inc. and the RNA template was synthesized by Dharmacon. The DNA polymerase assay (final volume 50 μl) contained 32 nM biotinylated DNA primer, 64 nM RNA substrate, dGTP, dCTP, dTTP (each at 5 μM), 103 nM [^3H]-dATP (specific activity=[…]), in 45 mM Tris-HCl, pH 8.0, 45 mM NaCl, 2.7 mM Mg(CH3COO)2, 0.045% Triton X-100 w/v, 0.9 mM EDTA. The reactions contained 5 μl of serial compound dilutions in 100% DMSO for IC50 determination and the final concentrations of DMSO were 10%. Reactions were initiated by the addition of 30 μl of the HIV-1-RT enzyme (final concentrations of 1-3 nM). Protein concentrations were adjusted to provide linear product formation for at least 30 min of incubation. After incubation at 30°C for 30 min, the reaction was quenched by addition of 50 μl of 200 mM EDTA (pH 8.0) and 2 mg/ml SA-PVT SPA beads (Amersham, RPNQ0009, reconstituted in 20 mM Tris-HCl, pH 8.0, 100 mM EDTA and 1% BSA). The beads were left to settle overnight and the SPA signals were counted in a 96-well top counter-NXT (Packard). IC50 values were obtained by sigmoidal regression analysis using GraphPad Prism 3.0 (GraphPad Software, Inc.).

| SMILES | IC50 [µM] |
| --- | --- |
| Cl.N#Cc1cc(Cl)cc(Oc2c(Br)ccc(CC(=O)Nc3ccc(C(=O)NCCN4CCC(F)(F)CC4)cc3Cl)c2F)c1 [Compound I-40, 4-{2-[4-Bromo-3-(3-chloro-5-cyano-phenoxy)-2-fluoro-phenyl]-acetylamino}-3-chloro-N-[2-(4,4-difluoro-piperidin-1-yl)-ethyl]-benzamide; hydrochloride salt] | 0.037 |

Target: T1, HIV-1 RT
Assay: Homopolymer HIV Reverse Transcriptase Assay: Inhibitor IC50 Determination
Type: biochemical
Conditions: purified recombinant enzyme, poly(rA)/oligo(dT)16 template-primer, [3H] dTTP, 37° C. 30 min
Method: Homopolymer HIV Reverse Transcriptase Assay: Inhibitor IC50 Determination
HIV-1 RT assay was carried out in 96-well Millipore MultiScreen MADVNOB50 plates using purified recombinant enzyme and a poly(rA)/oligo(dT)16 template-primer in a total volume of 50 μL. The assay constituents were 50 mM Tris/HCl, 50 mM NaCl, 1 mM EDTA, 6 mM MgCl2, 5 μM dTTP, 0.15 μCi [^3H] dTTP, 5 μg/ml poly (rA) pre annealed to 2.5 μg/ml oligo (dT)16 and a range of inhibitor concentrations in a final concentration of 10% DMSO. reactions were initiated by adding 4 nM HIV-1 RT and after incubation at 37° C. for 30 min, they were stopped by the addition of 50 μl ice cold 20%TCA and allowed to precipitate at 4° C. for 30 min. The precipitates were collected by applying vacuum to the plate and sequentially washing with 3×200 μl of 10% TCA and 2×200 μl 70% ethanol. Finally, the plates were dried and radioactivity counted in a Packard TopCounter after the addition of 25 μl scintillation fluid per well. IC50's were calculated by plotting % inhibition versus log10 inhibitor concentrations.

| SMILES | IC50 [µM] |
| --- | --- |
| Cc1cc(C(=O)NCCN(C)C)ccc1NC(=O)Cc1ccc(Cl)c(Oc2cc(Cl)cc(C#N)c2)c1F [Compound I-5, 4-{2-[4-Chloro-3-(3-chloro-5-cyano-phenoxy)-2-fluoro-phenyl]-acetylamino}-N-(2-dimethylamino-ethyl)-3-methyl-benzamide; compound with trifluoro-acetic acid] | 0.0154 |
| Cc1cc(C(=O)NC[C@@H](C)O)ccc1NC(=O)Cc1ccc(Cl)c(Oc2cc(Cl)cc(C#N)c2)c1F [Compound I-10, 4-{2-[4-Chloro-3-(3-chloro-5-cyano-phenoxy)-2-fluoro-phenyl]-acetylamino}-N-((R)-2-hydroxy-propyl)-3-methyl-benzamide] | 0.0183 |
| Cc1cc(C(=O)NCc2cccnc2)ccc1NC(=O)Cc1ccc(Cl)c(Oc2cc(Cl)cc(C#N)c2)c1F [Compound I-15, 4-{2-[4-Chloro-3-(3-chloro-5-cyano-phenoxy)-2-fluoro-phenyl]-acetylamino}-3-methyl-N-pyridin-3-ylmethyl-benzamide; compound with trifluoro-acetic acid] | 0.0166 |
| Cc1cc(C(=O)NCC(O)CO)ccc1NC(=O)Cc1ccc(Cl)c(Oc2cc(Cl)cc(C#N)c2)c1F (stereo not drawn) [Compound I-20, 4-{2-[4-Chloro-3-(3-chloro-5-cyano-phenoxy)-2-fluoro-phenyl]-acetylamino}-N-(2,3-dihydroxy-propyl)-3-methyl-benzamide] | 0.0206 |
| Cc1cc(C(=O)NCCN2CCC(O)CC2)ccc1NC(=O)Cc1ccc(Br)c(Oc2cc(Cl)cc(C#N)c2)c1F [Compound I-25, 4-{2-[4-Bromo-3-(3-chloro-5-cyano-phenoxy)-2-fluoro-phenyl]-acetylamino}-N-[2-(4-hydroxy-piperidin-1-yl)-ethyl]-3-methyl-benzamide] | 0.0552 |
| Cc1cc(C(=O)NCCN2CCNCC2)ccc1NC(=O)Cc1ccc(Br)c(Oc2cc(Cl)cc(C#N)c2)c1F [Compound I-30, 4-{2-[4-Bromo-3-(3-chloro-5-cyano-phenoxy)-2-fluoro-phenyl]-acetylamino}-3-methyl-N-(2-piperazin-1-yl-ethyl)-benzamide] | 0.0209 |
| Cc1cc(C(=O)NS(C)(=O)=O)ccc1NC(=O)Cc1ccc(Br)c(Oc2cc(Cl)cc(C#N)c2)c1F [Compound I-36, 2-[4-Bromo-3-(3-chloro-5-cyano-phenoxy)-2-fluoro-phenyl]-N-(4-methanesulfonylaminocarbonyl-2-methyl-phenyl)-acetamide] | 0.0046 |
